Molecular target: T1, GLP-1 Receptor (Homo sapiens, UniProt P43220)
T1 construct: host or cells: HEK293/CRE-Luc (HEK293/GLPIR/CRE-LUC)
Assay: GLP-1R agonist cAMP stimulation assay
Format: cell-based
Settings: HEK293/CRE-Luc cell line stably expressing the GLP-1 Receptor; 30 min incubation; cAMP dynamic 2 Kit (Cisbio)
Experimental: Activation of GLP-1 receptor is known to stimulate cyclic AMP (cAMP) production in cells which indicates primary coupling to the Gas subunit of the G protein heterotrimeric complex.
To optimize functional activity directed toward Gas coupling, a HEK293/CRE-Luc cell line developed by HDB stably expressing the GLP-1 Receptor was used. 200× concentration of compound working solutions were prepared (Agilent Technologies Bravo) with ½ log serial dilution in 384-well Echo LDV plate (Labcyte, Cat #LP-0200). 50 nL/well 200× concentration of compound working solutions were moved to 384-well white low volume plate (Greiner, Cat #784075) using Labcyte ECHO550. 1×10^5 cells/mL HEK293/GLPIR/CRE-LUC (HD Biosciences) cell suspensions prepared with assay buffer [DPBS containing 0.5 mM IBMX (Sigma, Cat #15879) and 0.10% BSA (GENVIEW, Cat #FA016-100g)], 10 μL cell suspensions were added to each well of previous generated assay plate which already contains 50 nL compound at 200× concentration using ThermoFisher Multidrop Combi (1000 cells/well). Seal the plate and incubate at 37° C. with 5% CO2 for 30 min.
After incubation the cAMP assay signal was generated using cAMP dynamic 2 Kit (Cisbio). 5 μL cAMP-d2 working solution was added to each well, followed with 5 μL Anti-cAMP antibody-cryptate working solution added to each well using ThermoFisher Multidrop Combi. Incubate at room temperature for 1 hour protected from light. Read the fluorescence at 665 and 615 nm with Reader PerkinElmer EnVision.

T1 sequence (P43220 24-463, species assumed): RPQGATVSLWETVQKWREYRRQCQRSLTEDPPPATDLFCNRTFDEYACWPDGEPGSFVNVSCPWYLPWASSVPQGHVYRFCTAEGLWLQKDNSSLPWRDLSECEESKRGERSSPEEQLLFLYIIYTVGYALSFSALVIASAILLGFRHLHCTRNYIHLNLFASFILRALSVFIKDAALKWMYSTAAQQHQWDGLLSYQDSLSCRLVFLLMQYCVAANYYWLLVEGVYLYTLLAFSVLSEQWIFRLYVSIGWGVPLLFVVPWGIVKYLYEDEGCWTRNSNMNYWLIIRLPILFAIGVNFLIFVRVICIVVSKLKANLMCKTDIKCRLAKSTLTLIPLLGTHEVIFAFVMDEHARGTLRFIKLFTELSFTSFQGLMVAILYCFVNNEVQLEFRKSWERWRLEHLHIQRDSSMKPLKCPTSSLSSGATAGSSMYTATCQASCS

Compared with `Cc1cc(-c2ccncc2)cnc1CN1CCC(c2cccc3c2OC(C)(c2ccc(Cl)cc2F)O3)CC1` (stereo not shown) [E-14], `Cc1cc(-c2nnc(-c3cccnc3)[nH]2)cnc1CN1CCC(c2cccc3c2O[C@@](C)(c2ccc(Cl)cc2F)O3)CC1` [E-6] is lower in EC50: > 100 nM for the first, 1 to 100 nM for the second.

`CC1(c2ccc(Cl)cc2F)Oc2cccc(C3CCN(Cc4ncc(-c5nnc(C(F)(F)F)[nH]5)cc4OC4CCCC4)CC3)c2O1` (stereo not shown) [F-12, 2-((4-(2-(4-chloro-2-fluorophenyl)-2-methylbenzo[d][1,3]dioxol-4-yl)piperidin-1-yl)methyl)-3-(cyclopentyloxy)-5-(5-(trifluoromethyl)-4H-1,2,4-triazol-3-yl)pyridine] and `C[C@]1(c2ccc(Cl)cc2F)Oc2cccc(C3CCN(Cc4ncc(-c5nnc(C(F)(F)F)[nH]5)cc4NC4CCCC4)CC3)c2O1` [F-11, (S)-2-((4-(2-(4-chloro-2-fluorophenyl)-2-methylbenzo[d][1,3]dioxol-4-yl)piperidin-1-yl)methyl)-N-cyclopentyl-5-(5-(trifluoromethyl)-4H-1,2,4-triazol-3-yl)pyridin-3-amine] fall in the same range of EC50: 1 to 100 nM for the first, 1 to 100 nM for the second.

Compared with `COCCNC(=O)c1cnc(CN2CCC(c3cccc4c3O[C@@](C)(c3ccc(Cl)cc3F)O4)CC2)c(CC2(C#N)CC2)c1` [D-3], `COCCNC(=O)c1nnc(-c2cnc(CN3CCC(c4cccc5c4O[C@@](C)(c4ccc(Cl)cc4F)O5)CC3)c(CC3(C#N)CC3)c2)[nH]1` [E-3] is lower in EC50: 1 to 100 nM for the first, < 1 nM for the second.

First: Cc1cc(-c2nnc(C3CCCOC3)[nH]2)cnc1CN1CCC(c2cccc3c2O[C@@](C)(c2ccc(Cl)cc2F)O3)CC1 (stereo partly shown) [E-10]
Second: C[C@]1(c2ccc(Cl)cc2F)Oc2cccc(C3CCN(Cc4ncc(-c5nnc(C(F)(F)F)[nH]5)cc4C4CCCOC4)CC3)c2O1 (stereo partly shown) [F-10]
The EC50 of the first is higher: > 100 nM for the first, 1 to 100 nM for the second.

`C[C@]1(c2ccc(Cl)cc2F)Oc2cccc(C3CCN(Cc4ncc(-c5nnc(C(F)(F)F)[nH]5)cc4N4CCOC4=O)CC3)c2O1` [F-2, 3-[2-({4-[(2S)-2-(4-chloro-2-fluorophenyl)-2-methyl-2H-1,3-benzodioxol-4-yl]piperidin-1-yl}methyl)-5-[5-(trifluoromethyl)-4H-1,2,4-triazol-3-yl]pyridin-3-yl]-1,3-oxazolidin-2-one] and `C[C@]1(c2ccc(Cl)cc2F)Oc2cccc(C3CCN(Cc4ncc(-c5nnc(C(F)(F)F)[nH]5)cc4N4CCNC(=O)C4)CC3)c2O1` [F-9] fall in the same range of EC50: 1 to 100 nM for the first, 1 to 100 nM for the second.

`C[C@]1(c2ccc(Cl)cc2F)Oc2cccc(C3CCN(Cc4ncc(-c5nnc(C(=O)NC6CC6)[nH]5)cc4CC4(C#N)CC4)CC3)c2O1` [E-5] and `CNC(=O)c1nnc(-c2cnc(CN3CCC(c4cccc5c4O[C@@](C)(c4ccc(Cl)cc4F)O5)CC3)c(CC3(C#N)CC3)c2)[nH]1` [E-4] cannot be ordered by EC50: < 1 nM for the first, < 1 nM for the second.

Compared with `CC1(c2ccc(C(=O)O)cc2F)Oc2cccc(C3CCN(Cc4ncc(-c5nnc(C(F)(F)F)[nH]5)cc4CC4(C#N)CC4)CC3)c2O1` (stereo not shown) [A-3], `C[C@]1(c2ccc(C(N)=O)cc2F)Oc2cccc(C3CCN(Cc4ncc(-c5nnc(C(F)(F)F)[nH]5)cc4CC4(C#N)CC4)CC3)c2O1` [A-1] is lower in EC50: 1 to 100 nM for the first, < 1 nM for the second.

Compared with `Cc1cc(-c2csc(C(=O)O)n2)cnc1CN1CCC(c2cccc3c2OC(C)(c2ccc(Cl)cc2F)O3)CC1` (stereo not shown) [E-7], `Cc1cc(-c2nc(C(=O)O)cs2)cnc1CN1CCC(c2cccc3c2OC(C)(c2ccc(Cl)cc2F)O3)CC1` (stereo not shown) [E-17] is higher in EC50: 1 to 100 nM for the first, > 100 nM for the second. The first is the more potent here.

`C[C@]1(c2ccc(Cl)cc2F)Oc2cccc(C3CCN(Cc4nnc(-c5nnc(C(F)(F)F)[nH]5)cc4N4CCC(O)C4)CC3)c2O1` (stereo partly drawn) [F-15, 1-(3-((4-((S)-2-(4-chloro-2-fluorophenyl)-2-methylbenzo[d][1,3]dioxol-4-yl)piperidin-1-yl)methyl)-6-(5-(trifluoromethyl)-4H-1,2,4-triazol-3-yl)pyridazin-4-yl)pyrrolidin-3-ol] and `CC1COCCN1c1cc(-c2nnc(C(F)(F)F)[nH]2)nnc1CN1CCC(c2cccc3c2O[C@@](C)(c2ccc(Cl)cc2F)O3)CC1` (stereo partly drawn) [F-3, 4-[3-({4-[(2S)-2-(4-chloro-2-fluorophenyl)-2-methyl-2H-1,3-benzodioxol-4-yl]piperidin-1-yl}methyl)-6-[5-(trifluoromethyl)-4H-1,2,4-triazol-3-yl]pyridazin-4-yl]-3-methylmorpholine] fall in the same range of EC50: 1 to 100 nM for the first, 1 to 100 nM for the second.

Compared with `COCCc1cc(-c2nnc(C(=O)OC)[nH]2)cnc1CN1CCC(c2cccc3c2O[C@@](C)(c2ccc(Cl)cc2F)O3)CC1` [E-18], `C[C@]1(c2ccc(Cl)cc2F)Oc2cccc(C3CCN(Cc4ncc(-c5nnc(C(=O)O)[nH]5)cc4CC4(C#N)CC4)CC3)c2O1` [E-19] is lower in EC50: 1 to 100 nM for the first, < 1 nM for the second. The second is the more potent here.

First: C[C@]1(c2ccc(Cl)cc2F)Oc2cccc(C3CCN(Cc4ncc(-c5nnc(C(F)(F)F)[nH]5)cc4C4CCOCC4)CC3)c2O1 [F-6, (S)-2-((4-(2-(4-chloro-2-fluorophenyl)-2-methylbenzo[d][1,3]dioxol-4-yl)piperidin-1-yl)methyl)-3-(tetrahydro-2H-pyran-4-yl)-5-(5-(trifluoromethyl)-4H-1,2,4-triazol-3-yl)pyridine]
Second: C[C@]1(c2ccc(Cl)cc2F)Oc2cccc(C3CCN(Cc4ncc(-c5nnc(C(F)(F)F)[nH]5)cc4C4COC4)CC3)c2O1 [F-19]
The EC50 of the first is lower: 1 to 100 nM for the first, > 100 nM for the second.

Compared with `C[C@]1(c2ccc(Cl)cc2F)Oc2cccc(C3CCN(Cc4ncc(-c5nnc(C(F)(F)F)[nH]5)cc4N4CC5CC4CO5)CC3)c2O1` (stereo partly drawn) [F-5, 5-[2-({4-[(2S)-2-(4-chloro-2-fluorophenyl)-2-methyl-2H-1,3-benzodioxol-4-yl]piperidin-1-yl}methyl)-5-[5-(trifluoromethyl)-4H-1,2,4-triazol-3-yl]pyridin-3-yl]-2-oxa-5-azabicyclo[2.2.1]heptane], `C[C@]1(c2ccc(Cl)cc2F)Oc2cccc(C3CCN(Cc4ncc(-c5nnc(C(F)(F)F)[nH]5)cc4N4CCOCC4)CC3)c2O1` [F-1, 4-[2-({4-[(2S)-2-(4-chloro-2-fluorophenyl)-2-methyl-2H-1,3-benzodioxol-4-yl]piperidin-1-yl}methyl)-5-[5-(trifluoromethyl)-4H-1,2,4-triazol-3-yl]pyridin-3-yl]morpholine] is lower in EC50: 1 to 100 nM for the first, < 1 nM for the second. The second is the more potent here.

`CC1(C#N)CCN(c2cc(-c3nnc(C(F)(F)F)[nH]3)cnc2CN2CCC(c3cccc4c3O[C@@](C)(c3ccc(Cl)cc3F)O4)CC2)C1` (stereo partly drawn) [F-13, 1-(2-((4-((S)-2-(4-chloro-2-fluorophenyl)-2-methylbenzo[d][1,3]dioxol-4-yl)piperidin-1-yl)methyl)-5-(5-(trifluoromethyl)-4H-1,2,4-triazol-3-yl)pyridin-3-yl)-3-methylpyrrolidine-3-carbonitrile] and `COCCNc1cc(-c2nnc(C(F)(F)F)[nH]2)cnc1CN1CCC(c2cccc3c2O[C@@](C)(c2ccc(Cl)cc2F)O3)CC1` [F-4, 2-({4-[(2S)-2-(4-chloro-2-fluorophenyl)-2-methyl-2H-1,3-benzodioxol-4-yl]piperidin-1-yl}methyl)-N-(2-methoxyethyl)-5-[5-(trifluoromethyl)-4H-1,2,4-triazol-3-yl]pyridin-3-amine] fall in the same range of EC50: 1 to 100 nM for the first, 1 to 100 nM for the second.

Going from `N#CC1(Cc2cc(-c3nc(C(F)(F)F)n[nH]3)cnc2CN2CCC(c3ccc4cnn(Cc5ccc(Cl)cc5F)c4n3)CC2)CC1` [C-1] to `N#CC1(Cc2cc(C(=O)NC3(C#N)CC3)cnc2CN2CCC(c3ccc(F)c(OCc4ccc(Cl)cc4F)n3)CC2)CC1` [D-7], the EC50 rises from < 1 nM to > 100 nM.

First: Cc1cc(-c2cc(C(=O)O)n[nH]2)cnc1CN1CCC(c2cccc3c2OC(C)(c2ccc(Cl)cc2F)O3)CC1 (stereo not shown) [E-8]
Second: COc1cc(-c2nnn[nH]2)cnc1CN1CCC(c2cccc3c2OC(C)(c2ccc(Cl)cc2F)O3)CC1 (stereo not shown) [F-20, 2-((4-(2-(4-chloro-2-fluorophenyl)-2-methylbenzo[d][1,3]dioxol-4-yl)piperidin-1-yl)methyl)-3-methoxy-5-(1H-tetrazol-5-yl)pyridine]
The EC50 of the first is lower: 1 to 100 nM for the first, > 100 nM for the second. The first is the more potent here.

Compared with `C[C@]1(c2ccc(Cl)cn2)Oc2cccc(C3CCN(Cc4ncc(C(=O)NC5(C#N)CC5)cc4CC4(C#N)CC4)CC3)c2O1` [D-6], `C[C@]1(c2ccc(Cl)cc2F)Oc2cccc(C3CCC(Cc4ncc(-c5nnc(C(N)=O)[nH]5)cc4CC4(C#N)CC4)CC3)c2O1` (stereo partly shown) [B-1] is lower in EC50: > 100 nM for the first, < 1 nM for the second.

`C[C@]1(c2ccc(Cl)cc2F)Oc2cccc(C3CCN(Cc4ncc(-c5nnc(C(F)(F)F)[nH]5)cc4CS(=O)(=O)C4CC4)CC3)c2O1` [F-16] and `CC1(c2ccc(Cl)cc2F)Oc2cccc(C3CCN(Cc4ncc(-c5nnn[nH]5)cc4C4CC4)CC3)c2O1` (stereo not shown) [F-14, 2-((4-(2-(4-chloro-2-fluorophenyl)-2-methylbenzo[d][1,3]dioxol-4-yl)piperidin-1-yl)methyl)-3-cyclopropyl-5-(1H-tetrazol-5-yl)pyridine] fall in the same range of EC50: 1 to 100 nM for the first, 1 to 100 nM for the second.

`Cc1cc(-c2nnc(-c3cccnc3)s2)cnc1CN1CCC(c2cccc(OCc3ccc(Cl)cc3F)n2)CC1` [E-16] and `Cc1cc(-c2noc(-c3cccnc3)n2)cnc1CN1CCC(c2cccc(OCc3ccc(Cl)cc3F)n2)CC1` [E-12] cannot be ordered by EC50: > 100 nM for the first, > 100 nM for the second.

`Cc1cc(-c2nc(-c3cccnc3)no2)cnc1CN1CCC(c2cccc(OCc3ccc(Cl)cc3F)n2)CC1` [E-15] was tested, and the EC50 was > 100 nM.
